Activity calls are given as the source filed them. The calls are words filed in the database; no cut-off is given here.
Assays:
Acetylcholinesterase = Acetylcholinesterase (Homo sapiens, UniProt P22303)
Description: Inhibition of human recombinant AchE using acetylthiocholine iodide as substrate incubated for 5 mins prior to substrate addition measured after 5 mins by Ellman method

Homo sapiens = organism: Homo sapiens; experiment: Inhibition of human BuChE using butyrylthiocholine as substrate at 10 uM incubated for 5 mins prior to substrate addition measured after 5 mins by Ellman method
SH-SY5Y [1] = experiment: Neuroprotective activity in human SH-SY5Y cells assessed as protection from rotenone/oligomycin A-induced mitochondrial ROS at 1 uM incubated for 24 hrs prior to rotenone/oligomycin A challenge measured after 24 hrs by LDH assay; assay type: functional
[2] = Antioxidant activity assessed as oxygen radical absorbance capacity after 15 mins fluorescence assay relative to trolox; assay type: functional
[3] = Permeability of the compound by PAMPA; assay type: physicochemical; conditions: read-out: permeability
[4] = Cytotoxicity against human SH-SY5Y cells assessed as cell viability at 1 uM after 24 hrs by LDH assay relative to control; assay type: cell-based; conditions: read-out: Activity
Rattus norvegicus [5] = organism: Rattus norvegicus; experiment: Neurogenic activity in Wistar rat Primary neural stem cells assessed as cell maturation by measuring MAP-2 at 10 uM after 48 hrs by DAPI staining-based immunohistochemistry; assay type: functional
Rattus norvegicus [6] = organism: Rattus norvegicus; experiment: Neurogenic activity in Wistar rat Primary neural stem cells assessed as cell maturation by measuring TuJ1 at 10 uM after 48 hrs by DAPI staining-based immunohistochemistry; assay type: functional
SH-SY5Y [7] = experiment: Cytotoxicity against human SH-SY5Y cells at 10 uM after 48 hrs by LDH assay relative to control; assay type: cell-based
SH-SY5Y [8] = experiment: Cytotoxicity against human SH-SY5Y cells at 10 uM after 48 hrs by MTT assay relative to control; assay type: cell-based

Chain of Acetylcholinesterase (P22303 whole entry): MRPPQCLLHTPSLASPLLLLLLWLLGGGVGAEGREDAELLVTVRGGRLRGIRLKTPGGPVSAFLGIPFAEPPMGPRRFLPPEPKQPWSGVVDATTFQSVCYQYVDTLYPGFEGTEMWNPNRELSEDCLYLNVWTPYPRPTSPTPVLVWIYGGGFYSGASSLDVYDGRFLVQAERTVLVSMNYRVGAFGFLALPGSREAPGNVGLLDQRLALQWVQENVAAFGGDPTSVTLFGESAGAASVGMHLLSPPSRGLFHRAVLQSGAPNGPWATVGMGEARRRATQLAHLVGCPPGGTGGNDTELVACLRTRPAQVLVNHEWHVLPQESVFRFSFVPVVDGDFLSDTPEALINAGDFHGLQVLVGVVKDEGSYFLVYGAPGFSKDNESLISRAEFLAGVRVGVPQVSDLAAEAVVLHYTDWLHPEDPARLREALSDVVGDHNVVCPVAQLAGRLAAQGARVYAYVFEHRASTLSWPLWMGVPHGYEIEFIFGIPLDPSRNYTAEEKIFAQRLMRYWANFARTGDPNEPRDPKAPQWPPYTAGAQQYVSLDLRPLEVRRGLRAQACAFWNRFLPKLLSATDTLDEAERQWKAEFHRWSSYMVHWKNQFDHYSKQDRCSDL

Compound | IC50 (Acetylcholinesterase) [µM] | inhibition (Homo sapiens) [%] | Activity (SH-SY5Y [1]) [%] | Activity [2] | Papp [3] [×10⁻⁶ cm/s] | viability at 24 h, 1 µM [4] [%] | Activity (Rattus norvegicus [5]) | Activity (Rattus norvegicus [6]) | Activity (SH-SY5Y [7]) | Activity (SH-SY5Y [8])
COc1ccc2[nH]cc(CCNC(=O)c3ccc(CN(C)Cc4ccccc4Cl)cc3)c2c1 | 2.6 | 37 | 27 | 2.5 | 5.9 | 100 |  |  |  | 
CN(Cc1ccccc1)Cc1ccc(C(=O)NCCc2c[nH]c3ccc(O)cc23)cc1 | 4.2 |  | 12 | 4.3 | 5 | 100 |  |  |  | 
COc1ccc2[nH]cc(CCNC(C)=O)c2c1 |  |  |  | 2.4 |  |  | Active | Active |  | 
COc1cccc(CN(C)Cc2ccc(C(=O)NCCc3c[nH]c4ccccc34)cc2)c1 | 3.8 |  | 12 | 2.7 | 8.8 | 100 |  |  |  | 
CC(=O)NCCc1c(Cc2ccccc2)[nH]c2ccccc12 |  |  |  |  |  |  | inactive | inactive |  | 
CN(Cc1ccccc1)Cc1ccc(C(=O)NCCc2c[nH]c3cc(F)ccc23)cc1 | 2.5 |  | 12 | 2.1 | 6.6 | 100 |  |  |  | 
COc1ccc2c(CCNC(=O)c3ccc(CN(C)Cc4ccccc4)cc3)c[nH]c2c1 | 4.1 |  | 12 | 1.5 | 7.2 | 100 |  |  |  | 
COc1ccc2[nH]cc(CCNC(=O)c3ccc(CN(C)Cc4cccc(Cl)c4)cc3)c2c1 | 5.6 | 38 | 12 | 2.6 | 7.9 | 100 |  |  |  | 
CN(Cc1ccc(C(=O)NCCc2c[nH]c3ccccc23)cc1)Cc1ccccc1Cl | 3.8 | 38 | 12 | 2.8 | 5.8 | 100 |  |  |  | 
COc1ccc2[nH]cc(CCNC(=O)c3ccc(CN(C)Cc4ccccc4OC)cc3)c2c1 | 5.4 | 47 | 12 | 2.4 | 9.9 | 100 |  |  |  | 
COc1ccc2c(CCNC(=O)c3ccc(CN(C)Cc4cccc(Cl)c4)cc3)c[nH]c2c1 | 2.1 | 22 | 12 | 1.8 | 7.9 | 100 |  |  |  | 
COc1ccc2[nH]cc(CCNC(=O)c3ccc(CN(C)Cc4ccccc4)cc3)c2c1 | 6.1 |  | 36 | 2.5 | 7.1 | 100 | Active | Active | Non-toxic | Non-toxic
CN(Cc1ccc(C(=O)NCCc2c[nH]c3ccccc23)cc1)Cc1cccc(Cl)c1 | 5.1 | 38 | 12 | 2.9 | 7.1 | 100 |  |  |  | 
CN(Cc1ccccc1)Cc1ccc(C(=O)NCCc2c[nH]c3ccccc23)cc1 | 1.9 |  | 12 | 3.2 | 7.4 | 100 |  |  |  | 
COc1cccc(CN(C)Cc2ccc(C(=O)NCCc3c[nH]c4ccc(OC)cc34)cc2)c1 | 6.8 | 45 | 40 | 2.5 | 8.7 | 100 | Active | Active | Non-toxic | Non-toxic
COc1ccccc1CN(C)Cc1ccc(C(=O)NCCc2c[nH]c3ccccc23)cc1 | 4.7 |  | 12 | 2.9 | 8.8 | 100 | Active | Active | Non-toxic | Non-toxic
